1 compound from article PMC10889512, “Pyrimidine Schiff Bases: Synthesis, Structural Characterization and Recent Studies on Biological Activities” (International Journal of Molecular Sciences, 2024) can be followed below.

One may read the IC50 as the concentration needed to halve the response being measured. The low end stands for inhibition by little substance, the high end for a need for much substance.

One assay has as its system A172. Nature of the assay: Neutral red uptake assay on A172. It is filed as cell-based, human. To be noted: A172, 72 h treatment. On the procedure: (§1) Based on the results obtained for the RPTEC cell line, the following concentrations of 4b–d were chosen to be applied to neoplastic cell lines: 0.1, 1, 10, 25, 50, and 100 µM. A172, AGS, CaCo-2, HeLa, and HepG2 cancer cell lines were used to perform a neutral red uptake assay. The obtained results were compared with a negative control (cell lines incubated without tested compounds), and half-maximal inhibitory concentration (IC50) values were calculated. Cell lines were plated in 96-well plates at a density of 1 × 10^4 cells/well. After 24 h incubation, which allowed the cells to attach and start to proliferate, the culture media were replaced with 4a–d dissolved in the appropriate medium at concentrations of 1, 10, 50, 100, 150 and 200 µM. […] Negative (1% DMSO in medium) and positive (1 µM staurosporine) controls were also included. Plates were incubated at 37 °C for 24, 48, and 72 h before the neutral red uptake assay. The neutral red uptake assay was performed as described by Repetto et al.. Briefly, the medium from all wells was discarded, the attached cells were washed with 100 µL PBS, and then 100 µL of neutral red working solution in medium (40 µg/mL) was added to each well. The neutral red solution was incubated overnight in the same conditions as the cells and centrifuged before being added to the cells. The plates were incubated for at least 2 h at 37 °C, 5% CO2, in a humidified atmosphere. Next, the neutral red medium was removed, and the cells were washed with 100 µL PBS. A 100 µL quantity of destain solution consisting of 50% ethanol, 1% glacial acetic acid, and deionized water was added to each well. Plates were incubated for 30 min with constant shaking on a horizontal shaker at 37 °C. Absorption was measured at 540 nm excitation. The cells’ viability was calculated by comparing results from experimental sets with negative controls according to the formula: % viability=ODtest substance−ODblind/ODnegative control−ODblind×100

The subject of the next assay is HepG2. Nature of the assay: Neutral red uptake assay on HepG2. In kind it is cell-based. To be noted: Homo sapiens; HepG2, 72 h treatment. On the procedure: as §1
The test system of another assay is AGS cells. Kind of assay: Flow cytometry annexin V/PI staining, cell death pathway, AGS. Conditions: at IC50, 6, 18 and 24 h. In kind it is cell-based, human. The method, then:
To confirm the cell death pathway, another approach to flow cytometry was used. […] Annexin V is a specific PS-binding protein, and thus it is used to detect apoptotic cells. Very few events could be observed in the first and the second quadrant, which represent apoptotic cells. Most events occurred in the third and the fourth quadrant, where unstained and necrotic cells were located. The 24 h measurements after both flow cytometry approaches were consistent with each other. […] Two approaches for flow cytometry were used—FDA/PI staining to determine cell viability and annexin V/PI staining for cell death pathway determination. For cell death pathway determination, cells were plated in 6-well plates at a density of 3 × 10^5 cells/well. […] After 6, 18, and 24 h incubation, adhered and floating cells were harvested, centrifuged at 1600 rpm, and washed with PBS. Next, the cells were washed with 1× annexin-binding buffer, and after centrifugation, cells from each test set were suspended in 100 µL of 1× annexin-binding buffer. To each tube, 5 µL of Alexa Fluor 488-annexin V stain was added, and the cells were incubated in the dark. After 15 min incubation, the cells were centrifuged at 1600 rpm to remove the dye, then suspended in 1 mL of 1× binding buffer and kept on ice. Prior to analysis, cells were stained for 2 min with 1 µM PI. […]
A general note: Flow cytometry measures light scatter and fluorescence of single cells or particles in a stream.

The next assay concerns P. aeruginosa 27853. Kind of assay: Antimicrobial activity assay, microdilution. It is filed as cell-based, Pseudomonas aeruginosa. Conditions: concentration range from 0.5 µg/mL to 256 µg/mL. On the procedure:
In vitro antimicrobial and antifungal activity was screened using microdilution and modified Richard’s medium. The assay was performed for compounds 4a, 4b, 4c, and 4d with seven reference microbial strains from ATTC (E. coli 25922, S. aureus 43300, K. pneumoniae 700603, A. baumannii 19606, P. aeruginosa 27853, E. faecalis 29212, and C. albicans 10231).
Seven reference strains from the ATCC collection (Escherichia coli 25922, Staphylococcus aureus 43300, Klebsiella pneumoniae 13883, Acinetobacter baumannii 19606, Pseudomonas aeruginosa 27853, Enterococcus faecalis 29212, and Candida albicans 10231) were used. The assay was performed according to a modified version of Richard et al.’s protocol and ISO standards 20776-1:2019 and 16256:2021 [78, 79]. Microdilution with spectrophotometric measurement was used to calculate MIC50 (minimal inhibitory concentration which decreased the microorganisms’ viability to 50%) values. Briefly, compounds were prepared 100× concentrated in DMSO, and during the whole experiment, they were diluted to 1× with TSB. Serial dilutions of tested compounds were made directly on plates at a concentration range of 0.5 to 256 µg/mL. Microorganisms were incubated for 24 h at 37 °C (bacteria) or 25 °C (yeast) on Petri dishes with TSA. The bacteria/yeast suspensions were prepared at a density 5 × 10^5 CFU/mL (for bacteria) or 0.5–2.5 × 10^5 CFU/mL (for yeast) with TSB. Also, appropriate controls were contained in the experiment: the positive control consisted of a specific strain in TSB, and the negative control was TSB alone. To ensure that used strains were not modified and were still responding to antibacterial/antifungal compounds established by EUCAST, additional tests were conducted with levofloxacin, gentamicin, and amphotericin B. Microplates were incubated on a shaker for 24 h at 37 ± 1 °C or 25 ± 1 °C for the bacteria and yeast strains, respectively. After the incubation, spectrophotometric measurement was performed at 580 nm. MIC50 was calculated by comparing the results obtained for experimental sets with positive controls. Next, 50 µL aliquots of 1% (m/v) TTC solution were added to each well. The plates were incubated on the shaker for 24 h at 37/25 °C. In living microbial cells, colourless TTC is converted into red formazan crystals, which allows for visual observation and MBC/MFC (minimal bactericidal/fungicidal concentration) value assessment.
On the technique in general: Broth dilution looks for growth in wells or tubes with falling amounts of substance.

On to `Cc1nc(-c2ccccc2)nc(Nc2ccc(F)cc2)c1C=Nc1cccc(Cl)c1` [compound 4b, 5-{[(3-chlorophenyl)imino]methyl}-N-(4-fluorophenyl)-6-methyl-2-phenylpyrimidin-4-amine], for which the IC50 was 63.4 µM with A172; 63.4 µM with A172 (Homo sapiens, A 172, 72 h); over 100 µM in the assay with HepG2. Further, the cell death pathway entry in the assay with AGS cells is “irreversible cell injury and necrosis”. Moreover, in the assay on P. aeruginosa 27853, the “MIC and MBC/MFC activity” value is “Neither MIC nor MBC/MFC activity was observed”.
